What was measured:
physchem = details: octanol/water, pH 7.4
[1] = (§1) Half life in human liver microsomes by LC-MS/MS analysis; type: ADME; details: liver microsomes
in vitro = details: human, liver microsomes
[2] = Apparent Cmax in mouse infected with Plasmodium berghei ANKA at 3 mg/kg, po measured after 24 hrs; type: ADME, organism-based; parameters: dose 3 mg/kg, route oral; details: in vivo
[3] = Apparent AUC in mouse infected with Plasmodium berghei ANKA at 3 mg/kg, po measured after 24 hrs; type: ADME, organism-based; parameters: time < 24 hr, dose 3 mg/kg, route oral; details: in vivo
Plasma = assay: Apparent plasma concentration in mouse infected with Plasmodium berghei ANKA at 3 mg/kg, po measured after 24 hrs; type: ADME, organism-based; parameters: dose 3 mg/kg, route oral; details: in vivo
Liver microsome [4] = assay: Metabolic stability in rat liver microsomes; type: ADME
Liver microsome [5] = details: human, microsomes
Liver microsome [6] = assay: as §1; type: ADME; details: microsomes

Row | logD (physchem) | half-life [1] | microsomal CLint (in vitro) | Cmax [2] | AUC at 24 h [3] | Cave (Plasma) | Stability (Liver microsome [4]) | CLH (Liver microsome [5]) | t1/2 (Liver microsome [6]) | SMILES
1 | 2.8 | > 4.17 h | < 7 µL/min/mg | – | – | – | – | – | – | COc1ccc(-c2cc(-c3ccc(S(C)(=O)=O)cc3)ccc2N)cn1
2 | 1.7 | > 4.17 h | < 7 µL/min/mg | – | – | – | – | – | – | COc1ccc(-c2cc(-c3ccc(S(C)(=O)=O)cc3)nnc2N)cn1
3 | 3.2 | > 4.17 h | < 7 µL/min/mg | 1100 nM | 0.01 µM·h | 10 nM | – | – | – | Nc1ncc(-c2ccc(C(=O)N3CCOCC3)cc2)nc1-c1ccc(C(F)(F)F)cc1
4 | 2.6 | – | – | – | – | – | – | – | – | CNc1ncc(-c2ccc(S(C)(=O)=O)cc2)cc1-c1ccc(OC)nc1
5 | 2.3 | 2.57 h | 11 µL/min/mg | – | – | – | – | – | – | COc1ccc(-c2nc(-c3ccc(S(C)(=O)=O)cc3)cnc2N)cn1
6 | 2.8 | > 4.17 h | < 7 µL/min/mg | 1500 nM | 24.3 µM·h | 1000 nM | Stable | – | – | CS(=O)(=O)c1ccc(-c2cnc(N)c(-c3ccc(C(F)(F)F)nc3)n2)cc1
7 | 1.8 | > 4.17 h | < 7 µL/min/mg | – | – | – | – | – | – | COc1ccc(-c2cc(-c3ccc(S(C)(=O)=O)cc3)cnc2NCCCCN)cn1
8 | 3.3 | 3.97 h | 7.3 µL/min/mg | – | – | – | – | – | – | COc1ccc(-c2cc(-c3ccc(S(C)(=O)=O)cc3)cnc2I)cn1
9 | 2.2 | 4.68 h | 6.2 µL/min/mg | – | – | – | – | – | – | COc1ccc(-c2cc(-c3ccc(S(C)(=O)=O)cc3)cnc2N)cn1
10 | 2.5 | – | – | – | – | – | – | 11.3 µL/min/mg | 0.683 h | COc1ccc(-c2cncc(-c3ccc(S(C)(=O)=O)cc3)c2)cn1

Second part, the compound before the results:

Row | SMILES | logD (physchem) | half-life [1] | microsomal CLint (in vitro) | Cmax [2] | AUC at 24 h [3] | Cave (Plasma) | Stability (Liver microsome [4]) | CLH (Liver microsome [5]) | t1/2 (Liver microsome [6])
11 | CS(=O)(=O)c1ccc(-c2cnc(N)c(-c3ccc(C(F)(F)F)cc3)n2)cc1 | 2.8 | 2.58 h | 11 µL/min/mg | 500 nM | 6.4 µM·h | 300 nM | – | – | –
12 | CCOc1ncc(-c2ccc(S(C)(=O)=O)cc2)cc1-c1ccc(OC)nc1 | 3.7 | 2.03 h | 14.2 µL/min/mg | – | – | – | – | – | –
13 | COc1ccc(-c2cc(-c3ccc(S(C)(=O)=O)cc3)cnc2O)cn1 | 1.7 | – | – | – | – | – | – | – | –
14 | CNS(=O)(=O)c1ccc(-c2cnc(N)c(-c3ccc(C(F)(F)F)nc3)n2)cc1 | 2.8 | 1.85 h | 12 µL/min/mg | 2000 nM | 0.01 µM·h | 10 nM | – | – | –
15 | COc1ccc(-c2csc3c(-c4ccc(S(C)(=O)=O)cc4)cnc(N)c23)cn1 | 2.9 | > 4.17 h | < 7 µL/min/mg | – | – | – | – | – | –
16 | Nc1ncc(-c2ccc(C(=O)N3CCOCC3)cc2)nc1-c1ccc(C(F)(F)F)nc1 | – | > 4.17 h | < 7 µL/min/mg | – | – | – | – | – | –
17 | COc1ccc(-c2nc(-c3ccc(S(C)(=O)=O)cc3)ccc2N)cn1 | 2.3 | – | – | – | – | – | – | – | –
18 | COc1ccc(-c2cc(-c3ccc(S(C)(=O)=O)cc3)cnc2C(F)(F)F)cn1 | 3 | – | – | – | – | – | – | – | –
19 | CCS(=O)(=O)c1ccc(-c2cnc(N)c(-c3ccc(C(F)(F)F)nc3)n2)cc1 | 3.1 | 3.62 h | 8 µL/min/mg | 1100 nM | 0.01 µM·h | 10 nM | – | – | –

— ChEMBL document CHEMBL3124877, “Structure-activity-relationship studies around the 2-amino group and pyridine core of antimalarial 3,5-diarylaminopyridines lead to a novel series of pyrazine analogues with oral in vivo activity” (J Med Chem, 2013)
